The values that follow come from patent US12391648B2, “Pyridyloxy thioester derivative and preparation method therefor, herbicidal composition, and application” (Qingdao Kingagroot Chemical Compound Co., Ltd., priority 2018, dated 2025).

Common to all, as to assay: Post-emergence test experiment (Table 3, 1000 g/ha)
What all share (format): in vivo
Common to all, as to details: post-emergence spray, after 3 weeks, fresh weight inhibition

The test system of one assay is Leptochloa chinensis. An excerpt:
(§1) The activity level standard of harmful plants destruction (i. e. growth inhibition rate) is as follows: • Level 5: the growth inhibition rate is greater than 85%; • Level 4: the growth inhibition rate is equal to or greater than 60% and less than 85%; • Level 3: the growth inhibition rate is equal to or greater than 40% and less than 60%; • Level 2: the growth inhibition rate is equal to or greater than 20% and less than 40%; • Level 1: the growth inhibition rate is equal to or greater than 5% and less than 20%; • Level 0: the growth inhibition rate is less than 5%;
(§2) The above described growth inhibition rate is fresh weight inhibition rate.
(§3) Post-emergence test experiment: Monocotyledonous and dicotyledonous weed seeds and main crop seeds (i. e. wheat, corn, rice, soybean, cotton, oilseed, millet and sorghum.) were put into a plastic pot loaded with soil. Then covered with 0.5-2 cm soil, the seeds were allowed to grow in good greenhouse environment. The test plants were treated at 2-3 leaf stage 2 weeks after sowing. The test compounds of the invention were dissolved with acetone respectively, then added with tween-80, and using 1.5 liters per hectare of an emulsible concentrate of methyl oleate as a synergist, and diluted by certain amount of water to certain concentration. The solution was sprayed to the plants with a sprayer. Then the plants were cultured for 3 weeks in the greenhouse, and the experiment result of weed controlling effect after 3 weeks was listed in tables 3-4.

In the next assay the test system is Monochoria vaginalis.
Description: as §1, §2, §3

The next assay concerns Digitaria sanguinalis.
Description: as §1, §2, §3

The test system of another assay is Galium spurium.
Description: as §1, §2, §3

In a further assay the test system is Abutilon theophrasti.
Description: as §1, §2, §3

The subject of another assay is Setaria viridis.
Description: as §1, §2, §3

Turning to `CSC(=O)C(C)Oc1nc(F)c(F)c(N)c1F` (stereo not drawn) [Compound 1], the “Activity level (growth inhibition rate) Leptochloa chinensis” value in the assay with Leptochloa chinensis is 5 (Level 5: the growth inhibition rate is greater than 85%). The “Activity level (growth inhibition rate) Monochoria Vaginalis” value in the assay on Monochoria vaginalis is listed as 5 (Level 5: the growth inhibition rate is greater than 85%). Also, the “Activity level (growth inhibition rate) Digitaria sanguinalis” value in the assay on Digitaria sanguinalis was 5 (Level 5: the growth inhibition rate is greater than 85%). The “Activity level (growth inhibition rate) Galium spurium” value in the assay on Galium spurium is listed as 5 (Level 5: the growth inhibition rate is greater than 85%). For the same compound, the “Activity level (growth inhibition rate) Abutilon theophrasti” value with Abutilon theophrasti was 5 (Level 5: the growth inhibition rate is greater than 85%). In the assay on Setaria viridis, the “Activity level (growth inhibition rate) Setaria viridis” value was 5 (Level 5: the growth inhibition rate is greater than 85%).

In the case of `CSC(=O)C(Oc1nc(F)c(Cl)c(N)c1Cl)SC` (stereo not drawn) [Compound 47], the “Activity level (growth inhibition rate) Monochoria Vaginalis” value in the assay with Monochoria vaginalis is on record as 5 (Level 5: the growth inhibition rate is greater than 85%). In the assay with Galium spurium, the “Activity level (growth inhibition rate) Galium spurium” value is listed as 5 (Level 5: the growth inhibition rate is greater than 85%). For the same compound, in the assay with Abutilon theophrasti, the “Activity level (growth inhibition rate) Abutilon theophrasti” value is recorded as 5 (Level 5: the growth inhibition rate is greater than 85%).

On to `CSC(=O)C(CO)Oc1nc(F)c(Cl)c(N)c1Cl` (stereo not drawn) [Compound 48], for which the “Activity level (growth inhibition rate) Monochoria Vaginalis” value in the assay on Monochoria vaginalis is reported as 5 (Level 5: the growth inhibition rate is greater than 85%). Also, the “Activity level (growth inhibition rate) Galium spurium” value in the assay with Galium spurium was 5 (Level 5: the growth inhibition rate is greater than 85%). Besides, the “Activity level (growth inhibition rate) Abutilon theophrasti” value in the assay on Abutilon theophrasti was 5 (Level 5: the growth inhibition rate is greater than 85%).

For `CSC(=O)C(Oc1nc(F)c(Cl)c(N)c1Cl)[N+](=O)[O-]` (stereo not drawn) [Compound 49], the “Activity level (growth inhibition rate) Monochoria Vaginalis” value in the assay with Monochoria vaginalis was 5 (Level 5: the growth inhibition rate is greater than 85%). Also, the “Activity level (growth inhibition rate) Galium spurium” value in the assay with Galium spurium is 5 (Level 5: the growth inhibition rate is greater than 85%). In addition, the “Activity level (growth inhibition rate) Abutilon theophrasti” value in the assay on Abutilon theophrasti is on record as 5 (Level 5: the growth inhibition rate is greater than 85%).

Regarding `COC(Oc1nc(F)c(Cl)c(N)c1Cl)C(=O)SC` (stereo not drawn) [Compound 50], in the assay on Monochoria vaginalis, the “Activity level (growth inhibition rate) Monochoria Vaginalis” value is 5 (Level 5: the growth inhibition rate is greater than 85%). Also, in the assay on Galium spurium, the “Activity level (growth inhibition rate) Galium spurium” value was 5 (Level 5: the growth inhibition rate is greater than 85%). For the same compound, the “Activity level (growth inhibition rate) Abutilon theophrasti” value in the assay on Abutilon theophrasti is on record as 5 (Level 5: the growth inhibition rate is greater than 85%).

For the compound `CSC(=O)C(C=O)Oc1nc(F)c(Cl)c(N)c1Cl` (stereo not drawn) [Compound 51], the “Activity level (growth inhibition rate) Monochoria Vaginalis” value with Monochoria vaginalis is reported as 5 (Level 5: the growth inhibition rate is greater than 85%). In addition, the “Activity level (growth inhibition rate) Galium spurium” value in the assay with Galium spurium is 5 (Level 5: the growth inhibition rate is greater than 85%). Also, the “Activity level (growth inhibition rate) Abutilon theophrasti” value with Abutilon theophrasti was 5 (Level 5: the growth inhibition rate is greater than 85%).

Take `COC(=O)C(Oc1nc(F)c(Cl)c(N)c1Cl)C(=O)SC` (stereo not drawn) [Compound 52]: in the assay on Monochoria vaginalis, the “Activity level (growth inhibition rate) Monochoria Vaginalis” value is given as 5 (Level 5: the growth inhibition rate is greater than 85%). Further, the “Activity level (growth inhibition rate) Galium spurium” value in the assay with Galium spurium was 5 (Level 5: the growth inhibition rate is greater than 85%). Also, in the assay with Abutilon theophrasti, the “Activity level (growth inhibition rate) Abutilon theophrasti” value is given as 5 (Level 5: the growth inhibition rate is greater than 85%).

As to `CSC(=O)C(Oc1nc(F)c(Cl)c(N)c1Cl)c1cccs1` (stereo not drawn) [Compound 53], the “Activity level (growth inhibition rate) Monochoria Vaginalis” value with Monochoria vaginalis is given as 5 (Level 5: the growth inhibition rate is greater than 85%). Further, the “Activity level (growth inhibition rate) Galium spurium” value with Galium spurium is listed as 5 (Level 5: the growth inhibition rate is greater than 85%). In addition, in the assay with Abutilon theophrasti, the “Activity level (growth inhibition rate) Abutilon theophrasti” value is reported as 5 (Level 5: the growth inhibition rate is greater than 85%).

Regarding `CSC(=O)C(Oc1nc(F)c(Cl)c(N)c1Cl)c1ccco1` (stereo not drawn) [Compound 54], in the assay on Monochoria vaginalis, the “Activity level (growth inhibition rate) Monochoria Vaginalis” value is 5 (Level 5: the growth inhibition rate is greater than 85%). Further, in the assay on Galium spurium, the “Activity level (growth inhibition rate) Galium spurium” value was 5 (Level 5: the growth inhibition rate is greater than 85%). Moreover, in the assay on Abutilon theophrasti, the “Activity level (growth inhibition rate) Abutilon theophrasti” value is 5 (Level 5: the growth inhibition rate is greater than 85%).

`CSC(=O)C(Oc1nc(F)c(Cl)c(N)c1Cl)c1cscn1` (stereo not drawn) [Compound 55]: the “Activity level (growth inhibition rate) Monochoria Vaginalis” value in the assay with Monochoria vaginalis is 5 (Level 5: the growth inhibition rate is greater than 85%). Further, in the assay with Galium spurium, the “Activity level (growth inhibition rate) Galium spurium” value is reported as 5 (Level 5: the growth inhibition rate is greater than 85%). Moreover, the “Activity level (growth inhibition rate) Abutilon theophrasti” value with Abutilon theophrasti is listed as 5 (Level 5: the growth inhibition rate is greater than 85%).

Turning to `CCn1nccc1C(Oc1nc(F)c(Cl)c(N)c1Cl)C(=O)SC` (stereo not drawn) [Compound 56], the “Activity level (growth inhibition rate) Monochoria Vaginalis” value in the assay with Monochoria vaginalis was 5 (Level 5: the growth inhibition rate is greater than 85%). The “Activity level (growth inhibition rate) Galium spurium” value with Galium spurium is listed as 5 (Level 5: the growth inhibition rate is greater than 85%). Besides, the “Activity level (growth inhibition rate) Abutilon theophrasti” value in the assay on Abutilon theophrasti is 5 (Level 5: the growth inhibition rate is greater than 85%).

Take `CSC(=O)C(Oc1nc(F)c(Cl)c(N)c1Cl)c1cn(C)nc1C` (stereo not drawn) [Compound 57]: in the assay on Monochoria vaginalis, the “Activity level (growth inhibition rate) Monochoria Vaginalis” value was 5 (Level 5: the growth inhibition rate is greater than 85%). Also, the “Activity level (growth inhibition rate) Galium spurium” value in the assay with Galium spurium was 5 (Level 5: the growth inhibition rate is greater than 85%). Besides, the “Activity level (growth inhibition rate) Abutilon theophrasti” value in the assay on Abutilon theophrasti was 5 (Level 5: the growth inhibition rate is greater than 85%).

As for `CSC(=O)C(Oc1nc(F)c(Cl)c(N)c1Cl)c1cnn(C(F)F)c1` (stereo not drawn) [Compound 58], the “Activity level (growth inhibition rate) Monochoria Vaginalis” value in the assay on Monochoria vaginalis is given as 5 (Level 5: the growth inhibition rate is greater than 85%). In addition, the “Activity level (growth inhibition rate) Galium spurium” value in the assay on Galium spurium is reported as 5 (Level 5: the growth inhibition rate is greater than 85%). Further, the “Activity level (growth inhibition rate) Abutilon theophrasti” value with Abutilon theophrasti is reported as 5 (Level 5: the growth inhibition rate is greater than 85%).

Turning to `CSC(=O)C(Oc1nc(F)c(Cl)c(N)c1Cl)c1ccccc1` (stereo not drawn) [Compound 59], the “Activity level (growth inhibition rate) Monochoria Vaginalis” value in the assay with Monochoria vaginalis is 5 (Level 5: the growth inhibition rate is greater than 85%). For the same compound, the “Activity level (growth inhibition rate) Galium spurium” value in the assay on Galium spurium was 5 (Level 5: the growth inhibition rate is greater than 85%). Further, in the assay on Abutilon theophrasti, the “Activity level (growth inhibition rate) Abutilon theophrasti” value was 5 (Level 5: the growth inhibition rate is greater than 85%).

`CCSC(=O)C(Oc1nc(F)c(Cl)c(N)c1Cl)c1ccc(C(F)(F)F)cc1` (stereo not drawn) [Compound 60]: the “Activity level (growth inhibition rate) Monochoria Vaginalis” value in the assay on Monochoria vaginalis was 5 (Level 5: the growth inhibition rate is greater than 85%). Besides, in the assay on Galium spurium, the “Activity level (growth inhibition rate) Galium spurium” value is 5 (Level 5: the growth inhibition rate is greater than 85%). In the assay with Abutilon theophrasti, the “Activity level (growth inhibition rate) Abutilon theophrasti” value is 5 (Level 5: the growth inhibition rate is greater than 85%).

For `CSC(=O)C(Oc1nc(F)c(Cl)c(N)c1Cl)c1cccc(Cl)c1` (stereo not drawn) [Compound 61], the “Activity level (growth inhibition rate) Monochoria Vaginalis” value with Monochoria vaginalis was 5 (Level 5: the growth inhibition rate is greater than 85%). Besides, in the assay with Galium spurium, the “Activity level (growth inhibition rate) Galium spurium” value is on record as 5 (Level 5: the growth inhibition rate is greater than 85%). Further, the “Activity level (growth inhibition rate) Abutilon theophrasti” value in the assay on Abutilon theophrasti is given as 5 (Level 5: the growth inhibition rate is greater than 85%).

With `COc1ccc(C(Oc2nc(F)c(Cl)c(N)c2Cl)C(=O)SC)c(C)c1` (stereo not drawn) [Compound 62], the “Activity level (growth inhibition rate) Monochoria Vaginalis” value in the assay with Monochoria vaginalis is 5 (Level 5: the growth inhibition rate is greater than 85%). Moreover, the “Activity level (growth inhibition rate) Galium spurium” value in the assay with Galium spurium was 5 (Level 5: the growth inhibition rate is greater than 85%). The “Activity level (growth inhibition rate) Abutilon theophrasti” value with Abutilon theophrasti is reported as 5 (Level 5: the growth inhibition rate is greater than 85%).

`CSC(=O)C(Oc1nc(F)c(Cl)c(N)c1Cl)c1cccnc1` (stereo not drawn) [Compound 63]: the “Activity level (growth inhibition rate) Monochoria Vaginalis” value in the assay on Monochoria vaginalis is recorded as 5 (Level 5: the growth inhibition rate is greater than 85%). Further, the “Activity level (growth inhibition rate) Galium spurium” value with Galium spurium was 5 (Level 5: the growth inhibition rate is greater than 85%). Besides, the “Activity level (growth inhibition rate) Abutilon theophrasti” value in the assay on Abutilon theophrasti is on record as 5 (Level 5: the growth inhibition rate is greater than 85%).

For `CSC(=O)C(Oc1nc(F)c(Cl)c(N)c1Cl)c1cncnc1` (stereo not drawn) [Compound 64], the “Activity level (growth inhibition rate) Monochoria Vaginalis” value in the assay with Monochoria vaginalis is reported as 5 (Level 5: the growth inhibition rate is greater than 85%). For the same compound, the “Activity level (growth inhibition rate) Galium spurium” value in the assay with Galium spurium is on record as 5 (Level 5: the growth inhibition rate is greater than 85%). The “Activity level (growth inhibition rate) Abutilon theophrasti” value with Abutilon theophrasti is on record as 5 (Level 5: the growth inhibition rate is greater than 85%).

For the compound `CSC(=O)C(Oc1nc(F)c(Cl)c(N)c1Cl)c1ccc2ccccc2c1` (stereo not drawn) [Compound 65], in the assay with Monochoria vaginalis, the “Activity level (growth inhibition rate) Monochoria Vaginalis” value is 5 (Level 5: the growth inhibition rate is greater than 85%). Further, the “Activity level (growth inhibition rate) Galium spurium” value with Galium spurium is reported as 5 (Level 5: the growth inhibition rate is greater than 85%). The “Activity level (growth inhibition rate) Abutilon theophrasti” value in the assay with Abutilon theophrasti is listed as 5 (Level 5: the growth inhibition rate is greater than 85%).

`CSC(=O)C(Cc1ccccc1)Oc1nc(F)c(Cl)c(N)c1Cl` (stereo not drawn) [Compound 126]: in the assay with Monochoria vaginalis, the “Activity level (growth inhibition rate) Monochoria Vaginalis” value is recorded as 5 (Level 5: the growth inhibition rate is greater than 85%). For the same compound, the “Activity level (growth inhibition rate) Galium spurium” value in the assay with Galium spurium is listed as 5 (Level 5: the growth inhibition rate is greater than 85%). Further, in the assay on Abutilon theophrasti, the “Activity level (growth inhibition rate) Abutilon theophrasti” value was 5 (Level 5: the growth inhibition rate is greater than 85%).
